One series has as its system HepG2. As to the kind of experiment: MTT antiproliferative assay, HepG2. The conditions noted are these: read-out: IC50 HepG2.
The next series has as its system A549/taxol. As to the kind of experiment: MTT antiproliferative assay, Taxol-resistant A549. The format is cell-based.
A further series has as its system MDA-MB-231. As to the kind of experiment: MTT antiproliferative assay, MDA-MB-231. The conditions noted are these: Homo sapiens, MDA-MB-231, 72 h.
The subject of the next series is A549/cisplatin. The series can be described thus: MTT antiproliferative assay, cisplatin-resistant A549. In kind it is cell-based. The following applies: Homo sapiens.
The next series can be described thus: Water solubility by HPLC. The format is physicochemical. The conditions noted are these: deionized water, stirred overnight, HPLC 290 nm; for solubility: thermodynamic from solid, read-out: S, water solubility. The text has this:
The physicochemical characteristics of compounds directly determine their potential drug-like properties. Assessing a compound’s physicochemical properties before performing in vivo evaluations can guide further studies and minimize the time and cost associated with drug discovery. Therefore, parallel to the in vivo study, these solubilities of these compounds in water were experimentally measured using high-performance liquid chromatography (HPLC). Based on the results of full wave scanning, 290 nm was chosen as the maximum absorption wavelength for HPLC detection.
(§1) A HPLC system with an ultraviolet (UV) detector was used to detect the solubility of the compounds. The optimal wavelength was 290 nm. Ethanol/water (85:15) was an efficient eluent at a flow rate of 0.5 mL/min. The compounds were stirred in deionized water overnight to maximize the retention of the compounds in solution. Then, the solutions were filtered and the supernatant was used as a fluid sample for HPLC detection. The permeability (Pe) of some of the compounds was tested with the help of a standard PAMPA (pION), as previously reported. PAMPA was performed on a PAMPA Explorer instrument (pION, Inc., Woburn, MA) with the PAMPA Explorer command software (Version 3.7.4.1). The compounds were diluted to 10 mM with the system solution buffer (pH 7.4). Then, 150 μL of the diluted compound solution was transferred to a UV plate, and the UV spectrum was collected and used as a reference. Then, paint the membrane with 5 μL of gastrointestinal tract (GIT) lipid. The acceptor chamber was filled with 200 μL of acceptor solution buffer, and the donor chamber was filled with 200 μL of diluted compound solution. The PAMPA sandwich was assembled and left at 25 °C for 4 h. The UV spectra (240–500 nm) from the donor and the acceptor were collected. The permeability coefficient was calculated with the PAMPA Explorer Command software (Version 3.7.4.1) based on the area under the curve (AUC) of the reference plate, the donor plate, and the acceptor plate. The permeability coefficient of the compound was tested for four times, and the data are shown as the average values. Ketoprofen (4.5×10^−6 cm/s) and propranolol (112.8×10^−6 cm/s) were used as the standards in this assay.

Series [1] in a line: Parallel artificial membrane permeability assay (PAMPA). The format is in vitro ADME. The following applies: PAMPA, different pH values (Fig. 5). Here is the method:
Permeability is another important property that reflects the ability of molecules to diffuse through cell membranes. The permeability coefficients were determined using a standard parallel artificial membrane permeability assay (PAMPA) on a PAMPA Explorer instrument (Pion, Inc., MA, USA)[34].
as §1, with “The compounds were diluted to 10 mM with the system solution buffer (pH 7.4).” left out

In the next series the test system is A549. The series can be described thus: MTT antiproliferative assay, A549. The conditions noted are these: Homo sapiens, A549, 72 h.
The next series has as its system HCT116. The series can be described thus: MTT antiproliferative assay, HCT116. The conditions noted are these: read-out: IC50 HCT116.
Another series concerns HepG2 tumours. The series can be described thus: HepG2 hepatoblastoma xenograft in nude mice. The format is in vivo. The conditions noted are these: control groups of the IV study, dose not given. The method, then: Given the in vitro anti-tumour cell activity of 8n, we continued to evaluate its in vivo effect in hepatoblastoma xenograft models using previously reported methods, and the water-soluble anti-cancer drug 5-fluorouracil (5-FU) was used as a positive control. After tumours were established, the mice were IV injected with 2.5, 5, 10 or 50 mg/kg 8n; the lead compound DDO-6101 and antitumour drug 5-FU were used as controls. All mice had normal weights and quality of life in in vivo tests. […] The in vivo activity of 8n was also evaluated after oral administration. […] This observation may be attributed to the improved physicochemical properties of 8n compared to those of DDO-6101, such as aqueous solubility and cell membrane permeability, which were provided by modification with the carbamate moiety.
Figure 7 (A) The tumour diameters were measured and used to calculate the tumour volumes. The HepG2 xenograft-bearing mice were intravenously injected with 2.5, 5, 10 and 50 mg/kg 8n for 20 days. (B) After 20 days, mice were sacrificed and the individual tumours were weighed. *p < 0.05, […]; Student’s t-test (n = 6). (C) The tumour diameters were measured and used to calculate the tumour volumes. The HepG2 xenograft-bearing mice were orally administered 50 mg/kg 8n, 50 mg/kg DDO-6101 or 10 mg/kg 5-FU for 20 days.
All studies were performed in compliance with the relevant guidelines and regulations. Tumours on female nude mice were established by injecting 1×10^7 HepG2 cells on the dorsal surface. After four weeks, tumours of approximately 150 mm^3 were cut into pieces that were 3 mm×3 mm×3 mm in size and were then implanted in the dorsal surface of other female nude mice. One week later, mice implanted with xenografts of 100 mm^3 were selected, randomized, and […] injected with 2.5, 5, or 10-mg/kg 8n or vehicle daily for another three weeks. The tumour dimensions were measured daily with vernier calipers, and the tumour volumes were calculated using the formula: volume = (width)^2 × length/2.

Series [2] relates to HepG2, HCT116, MDA-MB-231 and A549 cells. As to the kind of experiment: MTT antiproliferative assay, cell line panel.
Description: (§2) The inhibition of tumour cell growth was measured by a modified tetrazolium (MTT) salt assay, as previously described[39]. Cells were cultured in a 96-well plate and treated with culture medium alone or different concentrations of the compounds. The cells were incubated for 72 h, and then, the MTT assay reagent was added. After a 4 h incubation, the formazan product was quantitated at 570 nm. The IC50 values (the concentrations that gave rise to 50% inhibition of cell viability) were calculated using GraphPad Prism 6 using a variable slope (four parameters).
Setting [3] is: MTT, 72 h; Taxol-resistant A549; read-out: IC50 A549/taxol.
Where [4] appears, read: MTT, 72 h, read-out: IC50 A549/cisplatin.

Data on 8 compounds can be found in publication PMC5073322, “Novel Natural Product-like Caged Xanthones Bearing a Carbamate Moiety Exhibit Antitumor Potency and Anti-Angiogenesis Activity In vivo” (Scientific Reports, 2016).

Converted amounts (≈) assume the structure as drawn. Where two headings read alike, the source gives them in different places.

Description for A549/cisplatin: as §2
Description for A549/taxol: as §2

For the compound `CC(C)=CCC12OC(C)(C)C3CC(C=C4C(=O)c5c(OC(=O)N6CCSC6)cccc5OC431)C2=O` (stereo not shown) [Compound 8i], the IC50 was 1.61 ± 0.18 µM with HepG2 (Homo sapiens, HepG2, 72 h); 0.82 ± 0.08 µM in the series with A549/taxol (setting [3]); 1 ± 0.1 µM in the series on MDA-MB-231 (read-out: IC50 MDA-MB-231); 1.8 ± 0.1 µM with A549/cisplatin (setting [4]); 3.38 ± 0.02 µM in the series on A549 (read-out: IC50 A549); 1.08 ± 0.02 µM in the series on HCT116 (Homo sapiens, HCT-116, 72 h). In addition, the solubility in the series “Water solubility by HPLC” stood at 20 µM (≈ 9.91 µg/mL). Also, in series [1], the “permeability relative to DDO-6101 and GA” value was “improved the permeability”.
As to `O=c1[nH]cc(F)c(=O)[nH]1` [Compound 5-FU, 5-fluorouracil, reference compound], the “inhibition of the tumour volume, control groups” value in the series on HepG2 tumours worked out at 50.95%.
For `CC(C)=CCC12OC(C)(C)C3CC(C=C4C(=O)c5c(OC(=O)N6CCOCC6)cccc5OC431)C2=O` (stereo not shown) [Compound 8d], the IC50 with HepG2 (Homo sapiens, HepG2, 72 h) stood at 2.31 ± 0.18 µM; in the series with A549/taxol (setting [3]), 0.53 ± 0.08 µM; with MDA-MB-231 (read-out: IC50 MDA-MB-231), 0.58 ± 0.04 µM; with A549/cisplatin (setting [4]) it was 1.48 ± 0.25 µM; in the series with A549 (read-out: IC50 A549), 9.81 ± 0.17 µM; in the series with HCT116 (Homo sapiens, HCT-116, 72 h), 0.71 ± 0.04 µM. In addition, the solubility in “Water solubility by HPLC” came to 40 µM (≈ 19.7 µg/mL). In series [1], the “permeability relative to DDO-6101 and GA” value is listed as “improved the permeability”.
With `COc1cccc2c1C(=O)C1=CC3CC4C(C)(C)OC(CC=C(C)C)(C3=O)C14O2` (stereo not shown) [Compound 3], the IC50 turned out to be 8.55 ± 0.43 µM in the series on HepG2 (Homo sapiens, HepG2, 72 h); 1.8 ± 0.06 µM in the series on MDA-MB-231 (read-out: IC50 MDA-MB-231); 6.1 ± 0.19 µM in the series with HCT116 (Homo sapiens, HCT-116, 72 h). The solubility in “Water solubility by HPLC” came to 10 µM (≈ 3.94 µg/mL). Besides, in series [2] (three cancer cell lines), the “fold less active than DDO-6101” value was 4–8 fold.
For `CC(=O)Oc1cccc2c1C(=O)C1=CC3CC4C(C)(C)OC(CC=C(C)C)(C3=O)C14O2` (stereo not shown) [Compound 1], the IC50 in the series on HepG2 (Homo sapiens, HepG2, 72 h) was 1.07 ± 0.09 µM; in the series with A549/taxol (setting [3]), 1.62 ± 0.1 µM; in the series on MDA-MB-231 (read-out: IC50 MDA-MB-231) it was 0.97 ± 0.09 µM; in the series on A549/cisplatin (setting [4]), 1.53 ± 0.2 µM; in series [2] (Homo sapiens, read-out: IC50 values, range over the cancer cell lines), 0.97 to 1.49 µM; with A549 (read-out: IC50 A549) it was 3 ± 0.8 µM. The IC50 with HCT116 (Homo sapiens, HCT-116, 72 h) was 1.49 ± 0.17 µM. Also, the solubility in “Water solubility by HPLC” worked out at 20 µM (≈ 8.45 µg/mL).
In the case of `CCN(CC)C(=O)Oc1cccc2c1C(=O)C1=CC3CC4C(C)(C)OC(CC=C(C)C)(C3=O)C14O2` (stereo not shown) [Compound 8b], the IC50 came out at 1.88 ± 0.14 µM in the series on HepG2 (Homo sapiens, HepG2, 72 h); 0.68 ± 0.08 µM in the series with A549/taxol (setting [3]); 0.47 ± 0.07 µM in the series with MDA-MB-231 (read-out: IC50 MDA-MB-231); 1.46 ± 0.09 µM in the series on A549/cisplatin (setting [4]); 2.86 ± 0.02 µM with A549 (read-out: IC50 A549); 2.87 ± 0.07 µM with HCT116 (Homo sapiens, HCT-116, 72 h). For the same compound, the solubility in the series “Water solubility by HPLC” was 30 µM (≈ 14.4 µg/mL). Besides, the “permeability relative to DDO-6101 and GA” value in series [1] is “improved the permeability”.
Regarding `CC(C)=CCC12OC(C)(C)C3CC(C=C4C(=O)c5c(OC(=O)N6CCC(N7CCCCC7)CC6)cccc5OC431)C2=O` (stereo not shown) [Compound 8l], the IC50 in the series with HepG2 (MTT, 72 h) worked out at 0.34 ± 0.27 µM; with A549/taxol (read-out: IC50 A549/taxol; MTT, 72 h; Taxol-resistant A549), 0.61 ± 0.04 µM; in the series on MDA-MB-231 (read-out: IC50 MDA-MB-231, MTT, 72 h), 0.88 ± 0.05 µM; in the series with A549/cisplatin (A549, 72 h, read-out: IC50 A549/cisplatin, MTT, 72 h), 0.98 ± 0.13 µM; in the series on A549 (read-out: IC50 A549, MTT, 72 h), 10.1 ± 2.1 µM; in the series on HCT116 (MTT, 72 h), 2.49 ± 0.33 µM. Moreover, the “fold higher activity against the resistant A549 cell line than A549” value with A549/taxol (Taxol-resistant and cisplatin-resistant A549 versus A549) is recorded as 10–15 fold. The “S, water solubility” value in “Water solubility by HPLC” was found to be 80 µM. In addition, the “permeability relative to DDO-6101 and GA” value in series [1] is “improved the permeability”.
For the compound `CC(C)=CCC12OC(C)(C)C3CC(C=C4C(=O)c5c(O)cccc5OC431)C2=O` (stereo not shown) [DDO-6101, reference compound], the IC50 amounted to 1.14 ± 0.09 µM in the series with HepG2 (Homo sapiens, HepG2, 72 h); 0.46 ± 0.03 µM in the series with A549/taxol (setting [3]); 0.32 ± 0.09 µM in the series on MDA-MB-231 (read-out: IC50 MDA-MB-231); 2.11 ± 0.1 µM in the series with A549/cisplatin (setting [4]); 2.59 ± 0.17 µM in the series with A549 (read-out: IC50 A549); 0.71 ± 0.1 µM in the series with HCT116 (Homo sapiens, HCT-116, 72 h). Also, the “inhibition of the tumour volume, control groups” value with HepG2 tumours was 36.81%. The solubility in the series “Water solubility by HPLC” was below 5 µM.
